# Assay results as given in patent US7838234B2, “Methods for determining cancer resistance to histone deacetylase inhibitors” (Pharmacyclics, Inc., priority 2007, dated 2010).
# How the values were obtained:
# [1] = tested on: Ovarian primary tumor cells; assay: Soft agar tritiated thymidine assay of primary human tumor samples, EDR/IDR/LDR classification: ovarian; assay type: cell-based
# Experimental: (§1) Subsequently, primary human tumor samples were obtained and viable tumor cells were plated in soft agar and treated with the HDAC inhibitor PCI-24781. Tritiated thymidine was added after 3 days, and 2 days later the radioactivity incorporated into the DNA was quantified. The tumors were then classified as either resistant (EDR: Extreme Drug Resistance), sensitive (LDR) or intermediate (IDR) based on deviation from the median profile (Oncotech, Inc. Tustin, Calif.). As predicted based on the HDACi responsive biomarker gene profiles hematopoietic tumors had the lowest proportion of resistant (EDR) tumors, and colon the most (38%). Among the solid tumors, ovarian had the lowest proportion of resistant tumors, consistent with the high HDACi-biomarker responsiveness of this tissue.
# [2] = tested on: Glioblastoma primary tumor cells; assay: Soft agar tritiated thymidine assay of primary human tumor samples, EDR/IDR/LDR classification: glioblastoma; assay type: cell-based
# Experimental: as §1
# [3] = tested on: primary colorectal tumors (colon carcinoma biopsies); assay: Soft agar chemosensitivity assay (tritiated thymidine incorporation) of primary colorectal tumors ex vivo; assay type: cell-based, human
# Text: The method used soft agar chemosensitivity assays in which primary human tumors were exposed in culture to PCI-24781. Either a trititated thymidine or alamar blue assay was then used to estimate the percentage of resistance to PCI-24781. For example in the trititated thymidine assay, sensitive tumor cells affected by the drug divided less and therefore incorporated less thymidine, whereas resistant tumor cells continued to grow and divide and therefore incorporated more thymidine into their DNA.
# Primary colorectal cancer (CRC) samples were obtained from patient biopsies (Table 2). Viable tumor cells were plated and cultured in soft agar as described in Kern et al. (1990), J. Natl. Cancer Inst., 82:582-588, and were treated with a range of PCI-24781 concentrations (0.01-2 μM). Tritiated thymidine was added to the culture after 3 days of exposure to the drug, and the amount of radioactivity incorporated into the cells after a further 2 days was quantified. The percentage of cell growth inhibition (% GI) was calculated by comparing the treated cells to the control cells, and from these growth profiles the tumors were classified as either sensitive or resistant based on deviation from the median profile.
# Subsequently, primary human tumor samples were obtained and viable tumor cells were plated in soft agar and treated with the HDAC inhibitor PCI-24781. Tritiated thymidine was added after 3 days, and 2 days later the radioactivity incorporated into the DNA was quantified. The tumors were then classified as either resistant (EDR: Extreme Drug Resistance), sensitive (LDR) or intermediate (IDR) based on deviation from the median profile (Oncotech, Inc. Tustin, Calif.).
# [4] = tested on: acetylated tubulin in PBMC; assay: Tubulin acetylation in peripheral blood mononuclear cells of treated mice (immunoblotting); assay type: in vivo, mouse; settings: female BALB/c mice, 50 mg/kg IV, 0.25-8 hours after dosing
# Experimental: In brief, female BALB/c mice were injected IV with 50 mg/kg PCI-24781 or vehicle. Blood and various tissues were collected at 0.25, 0.5, 1, 2, 3 & 8 hours after dosing. For acetylated histone and tubulin detection, organs/tissues were pooled for each vehicle and drug-treated organ group. RNA and protein were extracted from the samples with the PARIS Protein and RNA Isolation System (Ambion). Levels of acetylated and total α-tubulin & histones were evaluated by immunoblotting.
# [5] = tested on: advanced metastatic colon tumor cells; assay: Ex vivo growth inhibition of advanced metastatic colon tumor cells; assay type: cell-based, human; settings: in a number of cases, FIG. 11B
# [6] = tested on: Multiple Myeloma primary tumor cells; assay: Soft agar tritiated thymidine assay of primary human tumor samples, EDR/IDR/LDR classification: multiple myeloma; assay type: cell-based
# Experimental: as §1
# [7] = tested on: HDACi-responsive biomarker genes; assay: Taqman mRNA levels of HDACi-responsive biomarker genes in mouse tissues after dosing; assay type: in vivo; settings: mice, 50 mg/kg, 3 and 8 hours after administration, 13 tissues
# Experimental: RNA expression profiles were determined using on a GE-Codelink Mouse Unisetl 10K oligonucleotide arrays in duplicate. Each treated sample was normalized to the corresponding vehicle control. In order to validate the expression profile of HDADi-responsive genes identified by the gene expression array assays, Taqman gene expression assays were performed using Applied Biosystems Inc. assays. One-step RT-PCR was carried out in triplicate on 25 ng of total RNA from each sample on a ABI PRISM 7700 instrument. The mRNA levels for each gene were normalized to the amount of RNA in the well as measured in parallel using Ribogreen (Molecular Probes). The treated samples were then normalized to the vehicle control at that time point. We then determined the in vivo expression levels for five of the RDACi-responsive biomarker genes in various tissues following 3 hours or 8 hours following administration of PCI-24781 (50 mg/kg). A Taqman assay was performed to determine mRNA expression levels in brain, colon, kidney, liver, stomach, ovary, uterus, mammary, muscle, heart, lung, spleen, and pancreas. The issue distribution pattern was very reproducible across the biomarker set.
# [8] = tested on: primary colon tumor cells from newly diagnosed, naive patients; assay: Ex vivo growth inhibition of primary colon tumor cells from newly diagnosed, naive patients; assay type: cell-based, human; settings: ex vivo cultured cells from twelve patients, FIG. 11A
# [9] = tested on: HDACi resistance biomarker genes in colorectal tumor cells; assay: Microarray gene expression profiling of colorectal tumor cells treated with PCI-24781 or untreated; assay type: cell-based, human; settings: PCI-24781 2 μM vs untreated
# Experimental: After determining tumor sensitivity to PCI-24781, gene expression profiles were determined for resistant and sensitive tumors that were treated with PCI-24781 (2 μM) or untreated. Total RNA was isolated using Qiagen procedures (Qiagen, Inc., Valencia, Calif.) and fluorescent probes were prepared and hybridized to Codelink Human Whole Genome oligonucleotide microarrays containing ˜55,000 unique probes (GE Healthcare Bio-Sciences Corp., Piscataway, N.J.) according to the manufacturer's instructions. The microarrays were scanned in a GenePix 4000B scanner (Molecular Devices Corporation, Sunnyvale Calif.). The images were processed with Codelink software and the exported data was analyzed as follows.
# The median-normalized microarray data were imported into Genespring software (Agilent), and principal component analysis (PCA) and hierarchical clustering analysis were performed. We looked for consistent results from multiple analysis methods to provide additional confidence in our results. For multiple hypothesis correction, we used the q-values approach for false discovery rates (FDR) as described in Storey et al. (2003), Proc. Nat. Acad. Sci. USA, 100:9440-9445. As a second analytical approach we adopted the Bayesian ANOVA approach described in Ishwaran et al. (2003), J. Amer. Stat. Assoc., 98:438-455. […]
# AML primary tumor cells = assay: Soft agar tritiated thymidine assay of primary human tumor samples, EDR/IDR/LDR classification: AML; assay type: cell-based
# Experimental: as §1
structure (smiles),measurement,setting,value
CN(C)Cc1c(C(=O)NCCOc2ccc(C(=O)NO)cc2)oc2ccccc12 [PCI-24781],% Resistance,[1],25%
same,Intermediate IDR (number of tumors),[1]; of 12 tumors,4
same,Resistant EDR (number of tumors),[1]; of 12 tumors,3
same,Sensitive LDR (number of tumors),[1]; of 12 tumors,5
same,% Resistance,[2],29%
same,Intermediate IDR (number of tumors),[2]; of 7 tumors,1
same,Resistant EDR (number of tumors),[2]; of 7 tumors,2
same,Sensitive LDR (number of tumors),[2]; of 7 tumors,4
same,% Resistance,[3],38%
same,Intermediate IDR (number of tumors),[3]; of 24 tumors,3
same,Resistant EDR (number of tumors),[3]; of 24 tumors,9
same,Sensitive LDR (number of tumors),[3]; of 24 tumors,12
same,tubulin acetylation levels in PBMC,[4],increases
same,sensitivity to growth inhibition,[5],resistant
same,% Resistance,[6],33%
same,Intermediate IDR (number of tumors),[6]; of 6 tumors,0
same,Resistant EDR (number of tumors),[6]; of 6 tumors,2
same,Sensitive LDR (number of tumors),[6]; of 6 tumors,4
same,tissue with highest induction of mRNA of five HDACi-responsive biomarker genes,[7],"Ovary showed the highest level of induction, followed by uterus"
same,sensitivity to growth inhibition,[8],all sensitive
same,effect of treatment on expression of the identified resistance biomarker genes,[9],not altered
same,% Resistance,AML primary tumor cells,10%
same,Intermediate IDR (number of tumors),AML primary tumor cells; of 10 tumors,4
same,Resistant EDR (number of tumors),AML primary tumor cells; of 10 tumors,1
same,Sensitive LDR (number of tumors),AML primary tumor cells; of 10 tumors,5
